In patent publication US20250066423A1, “SESTRIN-MAPK COMPLEX INHIBITORS” (Sentcell Ltd, priority 2021, published 2025):

What was measured:
[1] = test system: sMAC signalling (sestrin 1, 2 and 3 expression, AMPK and MAPK phosphorylation); assay: Immunoblot of sMAC signalling in CD4+ T cells treated with DOS compounds (heat-map); type: cell-based, human
Experimental: CD4+ T cells were isolated from PBMCs from healthy donors, treated with DOS compounds for 4 hours and harvested for immunoblot analysis. The heat-map of Sestrin 1, Sestrin 2, Sestrin 3, p-mTOR1, p-JNK, p-AMPK, p-ERK1/2, and p-p38, represents the mean of three to nine experiments. Histone 3 was used as a control.
• 1. CD4+ cells were separated from PBMC using appropriate microbeads kit (Miltenyi) • 2. Cells were resuspended in whole RPMI medium and plated in the 24-multiwell plate • 3. Then activated for 4 hrs with DOS compounds • 4. Cells were then harvested, washed with PBS and resuspended in lysis buffer (RIPA with […]) • 5. The cell-lysis mix was incubated for 20 mins on ice • 6. Samples were centrifuged for 20 mins at the max speed • 7. The supernatant was collected and Lemmli buffer+β-Mercaptoethanol was added • 8. Samples were then boiled for 5 mins at 95° C. • 9. Samples were loaded on the polyacrylamide gel and left to run in TRIS-Glycine-SDS running buffer • 10. Once the run was completed the proteins were transferred from the gel to the nitrocellulose membrane by using the Trans-Blot machine (Biorad) • 11. Membrane was washed with 0.1% Tween-TBS buffer and blocked in 5% non-fat milk for 1 hr • 12. Followed incubation with the primary antibody o.n. • 13. The day after, the membrane was washed with 0.1% Tween-TBS buffer for three times for at least 30 mins each • 14. Secondary antibody was then added for 1h • 15. The membrane was the washed with 0.1% Tween-TBS buffer for three times for at least 30 mins each • 16. The signal was developed using ECL solution
This was shown by downregulation of sestrin 1, 2 and 3 expression, and AMPK and MAPK phosphorylation.

H1N1 PR8/54 = type: in vivo, mice; conditions: old mice, vaccination with DOS, H1N1 PR8/54
[2] = test system: Breast cancer cell line (MCF-7); assay: Cancer cell death by FACS live-dead staining; type: cell-based; conditions: 20 uM, 48 hours
Experimental: (§1) (Left) Immortalized paediatric neuroblastoma cell line (sh-sy5y) was treated at different concentrations of DOS46L and DOS144D (from 1 uM to 20 uM) for 48 hours, then analysed by FACS with live-dead staining. (Right) Breast cancer cell line (MCF-7) was treated at the fixed concentration of DOS46L and DOS144D (20 uM) for 48 hours, then analysed by FACS with live-dead dye staining. UN depicts untreated controls. Results of triplicate cultures are shown.

[3] = test system: paediatric neuroblastoma cell line (sh-sy5y); assay: Cancer cell death by FACS live-dead staining; type: cell-based; conditions: 1 uM to 20 uM, 48 hours
Experimental: as §1

Sestrin 2 = target: T1, Sestrin 2 (Homo sapiens, UniProt P58004); assay: Streptavidin pull-down of biotinylated DOS46L with flag recombinant sestrins; type: binding; conditions: streptavidin immunoprecipitation
T1 sequence (P58004 1-480): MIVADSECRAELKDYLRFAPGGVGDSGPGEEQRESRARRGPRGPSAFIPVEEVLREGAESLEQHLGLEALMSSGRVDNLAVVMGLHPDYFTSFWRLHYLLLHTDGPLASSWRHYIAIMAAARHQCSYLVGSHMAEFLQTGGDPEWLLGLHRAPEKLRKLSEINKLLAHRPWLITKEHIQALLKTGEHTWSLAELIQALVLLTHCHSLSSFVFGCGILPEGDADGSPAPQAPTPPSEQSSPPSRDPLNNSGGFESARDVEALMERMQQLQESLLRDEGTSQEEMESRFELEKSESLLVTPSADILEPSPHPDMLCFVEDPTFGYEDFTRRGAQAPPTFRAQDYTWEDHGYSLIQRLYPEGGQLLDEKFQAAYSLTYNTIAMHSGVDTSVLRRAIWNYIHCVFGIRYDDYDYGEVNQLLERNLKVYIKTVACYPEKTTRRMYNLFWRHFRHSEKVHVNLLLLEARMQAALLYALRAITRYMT
Experimental: (§2) (A) Biotinylated DOS46L was mixed with flag recombinant Sestrins, immunoprecipitated with streptavidin and immunoblotted with flag Sestrins. […] Representative images from three experiments are shown. […] (D) DOS46L binds to the entire sMAC complex in CD4 T cells. CD4+ T cells were isolated from PBMCs from healthy donors and treated with biotinylated DOS46L compound (10 uM) for 4 hours. Cells were harvested for immunoprecipitation analysis.
(§3) The selective interaction was also studied using the cutting-edge […] algorithm for molecular docking predictions based on the deposited sestrin 2 crystal structure.

sestrin 1 = target: T2, sestrin 1 (Homo sapiens, UniProt Q9Y6P5); assay: as above; type: binding; conditions: streptavidin immunoprecipitation
T2 sequence (Q9Y6P5 1-492): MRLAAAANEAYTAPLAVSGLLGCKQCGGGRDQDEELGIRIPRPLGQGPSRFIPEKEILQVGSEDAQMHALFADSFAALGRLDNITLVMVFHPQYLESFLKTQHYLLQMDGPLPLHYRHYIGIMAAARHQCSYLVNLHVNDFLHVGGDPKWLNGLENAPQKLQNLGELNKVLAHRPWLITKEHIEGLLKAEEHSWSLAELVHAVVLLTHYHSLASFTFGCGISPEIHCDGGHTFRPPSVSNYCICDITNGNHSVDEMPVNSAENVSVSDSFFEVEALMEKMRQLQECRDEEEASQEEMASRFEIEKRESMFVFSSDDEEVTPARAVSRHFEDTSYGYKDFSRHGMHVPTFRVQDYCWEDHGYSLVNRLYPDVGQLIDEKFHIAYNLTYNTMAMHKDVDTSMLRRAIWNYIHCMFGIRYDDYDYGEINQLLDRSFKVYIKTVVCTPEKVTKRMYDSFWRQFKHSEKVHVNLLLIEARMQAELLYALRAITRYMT
Experimental: as §2, §3

[4] = target: T3, GATOR complex (WDR59 and mTOR) (Homo sapiens, UniProt P42345+Q6PJI9); assay: Pull-down of biotinylated DOS46L from CD4+ T cells; type: binding; conditions: 10 uM, 4 hours
T3 construct: endogenous in cells; host or cells: primary CD4+ T cells from PBMCs of healthy donors
Experimental: as §2
(§4) • 1. Cell pellet was lysed with 100 μL of denaturing lysis buffer • 2. Then mixed well by vortexing vigorously for 2-3 sec at maximum speed. • 3. Samples were then boiled at 95° C. for 5 min. • 4. Samples were then diluted 900 μl of non-denaturing lysis buffer and mixed gently. • 5. Cell lysates were then passed through a needle attached to a 1 ml syringe for 5-10 times or were sonicated. • 6. Incubated then on ice for 5 min • 7. Samples were pre-cleaned by spinning at the max speed at 4° C. for 20 min. • 8. Supernatants were collected in a new tube • 9. 7 ul (5 μg) of SESN2 (abcam) primary anti-body was added directly to the supernatant and incubated on the rota o.n. at 4° C. • 10. 200 ul of protein A/G beads were washed 4-5 times in IP buffer and blocked then o.n. in IP buffer with BSA and left on the rota at 4° C. • 11. The day after, 50 ul of protein A/G beads were added to the sample and incubated for 3 hrs on the rota at 4° C. • 12. […]

[5] = target: T4, sMAC (sestrin 1, 2, and 3, AMPK and MAPKs) (Homo sapiens, UniProt P58004+Q9Y6P5); assay: Pull-down of biotinylated DOS46L from CD4+ T cells; type: binding; conditions: 10 uM, 4 hours
T4 construct: endogenous in cells; host or cells: primary CD4+ T cells from PBMCs of healthy donors
T4 sequence (Q9Y6P5 1-492): T2 sequence (Q9Y6P5 1-492)
T4 sequence (P58004 1-480): T1 sequence (P58004 1-480)
T4 sequence (P58005 1-492 partner): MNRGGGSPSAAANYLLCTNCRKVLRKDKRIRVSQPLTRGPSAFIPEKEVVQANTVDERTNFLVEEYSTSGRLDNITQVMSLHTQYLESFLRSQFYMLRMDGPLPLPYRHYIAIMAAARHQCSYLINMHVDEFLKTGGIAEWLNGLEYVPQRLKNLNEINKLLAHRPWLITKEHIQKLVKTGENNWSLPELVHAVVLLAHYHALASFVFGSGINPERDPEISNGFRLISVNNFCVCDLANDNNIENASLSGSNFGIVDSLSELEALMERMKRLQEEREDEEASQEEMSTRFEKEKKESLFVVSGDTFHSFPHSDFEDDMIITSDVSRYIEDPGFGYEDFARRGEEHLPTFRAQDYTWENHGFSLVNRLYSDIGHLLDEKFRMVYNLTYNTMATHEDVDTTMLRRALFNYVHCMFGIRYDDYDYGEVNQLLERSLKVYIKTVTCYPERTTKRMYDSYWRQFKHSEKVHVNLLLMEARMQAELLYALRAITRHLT
Experimental: as §2, §4

[6] = target: T5, flag recombinant Sestrin 3 (UniProt P58005 1-492, limits assumed); assay: recombinant sestrins, precipitation and immunoblot (FIG. 8B-C)
T5 construct: also called flagged sestrin 3; not shown: flag tag
T5 sequence (looked up): T4 sequence (P58005 1-492 partner)

T3 sequence (Q6PJI9 whole entry, other chains not shown): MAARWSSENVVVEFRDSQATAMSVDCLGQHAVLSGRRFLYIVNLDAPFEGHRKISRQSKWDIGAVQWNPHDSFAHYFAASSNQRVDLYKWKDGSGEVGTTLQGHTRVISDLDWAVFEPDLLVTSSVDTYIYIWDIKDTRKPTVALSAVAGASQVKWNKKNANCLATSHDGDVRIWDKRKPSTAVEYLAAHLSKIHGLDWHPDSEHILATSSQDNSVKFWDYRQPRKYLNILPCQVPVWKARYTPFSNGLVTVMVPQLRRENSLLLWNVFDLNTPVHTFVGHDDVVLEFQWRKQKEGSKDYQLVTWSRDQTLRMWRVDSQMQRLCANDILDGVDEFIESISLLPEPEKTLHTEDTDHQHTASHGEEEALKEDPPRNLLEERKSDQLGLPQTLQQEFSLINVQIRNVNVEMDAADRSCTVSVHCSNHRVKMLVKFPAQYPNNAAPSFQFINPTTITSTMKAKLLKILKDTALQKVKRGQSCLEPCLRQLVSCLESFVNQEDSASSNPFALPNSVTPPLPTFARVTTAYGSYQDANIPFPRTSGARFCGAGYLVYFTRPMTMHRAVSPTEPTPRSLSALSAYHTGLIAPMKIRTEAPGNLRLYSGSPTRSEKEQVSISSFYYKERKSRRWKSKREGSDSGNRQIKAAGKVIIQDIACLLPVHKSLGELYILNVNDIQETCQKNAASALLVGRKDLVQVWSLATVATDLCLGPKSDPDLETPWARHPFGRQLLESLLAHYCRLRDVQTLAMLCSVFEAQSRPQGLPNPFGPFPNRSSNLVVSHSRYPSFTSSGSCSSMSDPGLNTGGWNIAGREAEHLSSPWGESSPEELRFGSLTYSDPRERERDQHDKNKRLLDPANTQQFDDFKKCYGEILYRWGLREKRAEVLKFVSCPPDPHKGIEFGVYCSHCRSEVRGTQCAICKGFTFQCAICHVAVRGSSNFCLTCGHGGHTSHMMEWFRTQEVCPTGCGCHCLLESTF

CC(C)C[C@H]1NC(=O)[C@@H](CC(C)C)NC(=O)[C@@H](Cc2c[nH]c3ccccc23)NC(=O)[C@@H](CCC(=O)O)NC(=O)CNC1=O [DOS144D]
effectiveness at sMAC inactivation among all of the DOS compounds tested [1]: most effective
sestrins inhibited (pan or selective inhibitor) ([1]; CD4+ T cells, 4 hours, FIG. 5 heat-map): inhibit all three sestrins
survival data, comparison of compounds (H1N1 PR8/54): similar
cancer cell death [2]: induction of cancer cell death
cancer cell death [3]: induction of cancer cell death

biotinylated DOS46L: biotinylated variant of DOS46L used for pull-down (cyclo(AFIPV); also: biotinylated, site not given here)
direct binding to sestrin 2 (Sestrin 2): directly binds
direct binding to sestrin 1 (sestrin 1): directly binds
association with elements of the GATOR complex in cells [4]: not with elements of the GATOR complex
association with sMAC in cells [5]: found in the sMAC

B1: flag recombinant Sestrin 1 (other, UniProt Q9Y6P5 1-492, looked up)
chain: T2 sequence (Q9Y6P5 1-492)
notes: also called flagged sestrin 1; not shown: flag tag
binding result [6]: no binding
